The results in this text go back to patent publication US7253286B2, “Nitrogen-containing aromatic derivatives” (Eisai Co., Ltd, priority 2000, dated 2007).

Test [1] relates to Human Umbilical Vein Endothelial Cells (HUVECs). As to the kind of experiment: Inhibition against invasive tube formation by vascular endothelial cells in response to stimulation by angiogenic factor mixture. The class given is cell-based. On the set-up: key: the number of tubes formed in the absence of the test substance was designated as +++; scored on the 5-level scale of +++, ++, +, +/−, −; scored on the 5-level scale of +++, ++, +, +/−, −; scored on the 5-level scale of +++, ++, +, +/−, −; − was assigned if absolutely no tubes formed. As to conditions: HUVEC on fibrin gel, EGF/FGF2/VEGF/HGF/TNF-α mixture, 6th day, MTT staining; for number of tubes formed in the fibrin gel (score) at 0.01 μM: test substance 0.01 μM; for number of tubes formed in the fibrin gel (score) at 0.1 μM: test substance 0.1 μM; for number of tubes formed in the fibrin gel (score) at 1.0 μM: test substance 1.0 μM. The method, then:
Inhibition Against Invasive Tube Formation by Vascular Endothelial Cells in Response to Stimulation by Angiogenic Factor Mixture
Human Umbilical Vein Endothelial Cells (HUVECs) were isolated according to a reported method (Shinseikagaku Jikken Koza [New Biochemistry Experiment Lectures], “Saibo Baiyo Gijutsu” [Cell Culturing Techniques], p.197–202), and were cultured in a 5% CO2 incubator (37° C.) using EGM-2 medium (purchased from Clonetics Corp.) until the cells reached confluency. After adding 0.4 ml of bovine fibrinogen (purchased from Sigma Co.) to the inner well of a Transwell culturing plate (purchased from Coster Inc.), it was hardened with 0.7 units/ml of thrombin (purchased from Sigma Co.). The HUVECs were recovered using trypsin-EDTA and then suspended in human endothelial serum free medium basal growth medium (hereinafter abbreviated as SFM, purchased from GIBCO BRL), and 0.4 ml of the cell suspension (1.4×10^5 cells) was seeded onto the hardened fibrin gel and cultured for approximately 4 hours in a 5% CO2 incubator (37° C.). After 4 hours, there was added to the outer chamber of the Transwell 1.5 ml of an SFM solution containing a mixture of angiogenic factors {10 ng/ml EGF (purchased from GIBCO BRL), 30 ng/ml FGF2 (purchased from GIBCO BRL), 75 ng/ml VEGF (purchased from Wako Pure Chemical Industries Co., Ltd.), 50 ng/ml HGF (purchased from R&D Co.) and 7.5 ng/ml TNF-α (purchased from Genzyme Corp.) [The concentrations of the angiogenic factors differed slightly according to the HUVEC lot.]} and a diluted test substance, and culturing was carried out in a 5% CO2 incubator (37° C.). On the 2nd and 4th days after adding the test substance, the medium was exchanged with 1.5 ml of freshly prepared SFM solution containing the angiogenic factor mixture and test substance. Upon aspirating off the culture supernatant in the inner well on the 6th day after the initial addition of the test substance, 0.4 ml of a 3.3 mg/ml MTT solution dissolved in PBS (purchased from Sigma Corp.) was added and culturing was performed for approximately 1 hour in a 5% CO2 incubator (37° C.). The number of tubes formed in the fibrin gel stained with MTT was scored based on microscope observation. Specifically, the number of tubes formed in the absence of the test substance was designated as +++, while − was assigned if absolutely no tubes formed. The number of tubes formed in the presence of the test substance was scored on the 5-level scale of +++, ++, +, +/−, − to evaluate the strength of inhibition of the test substance.

For test [2] the test system is unchanged. Briefly: Inhibition against sandwich tube formation by vascular endothelial cells in response to stimulation by VEGF. The format is cell-based. As to conditions: HUVEC in collagen gel sandwich, stimulation by VEGF (25 ng/ml VEGF and 10 ng/ml EGF), 4th day, total tube length, read-out: IC50 (concentration required for 50% inhibition of tube formation). How it is done:
Inhibition Against Sandwich Tube Formation by Vascular Endothelial Cells in Response to Stimulation by Angiogenic Factor
Human Umbilical Vein Endothelial Cells (HUVECS) were isolated by the same method as in Pharmacological Test Example 1, and were cultured in a 5% CO2 incubator (37° C.) using EGM-2 medium (purchased from Clonetics Corp.) until the cells reached confluency.
An ice-cooled mixture of collagen: 5× RPMI 1640: reconstitution buffer (all purchased from Nitta Gelatin, Inc.) at 7:2:1 was dispensed at 0.4 ml into each well of a 24-well plate, and then stationed for 40 minutes in a 5% CO2 incubator (37° C.) for gelling. The HUVECs were recovered using trypsin-EDTA and then suspended in human endothelial serum free medium (SFM, purchased from GIBCO BRL) containing added angiogenic factors [20 ng/ml FGF2 (purchased from GIBCO BRL) and 10 ng/ml EGF (purchased from GIBCO BRL), or 25 ng/ml VEGF (purchased from Wako Pure Chemical Industries Co., Ltd.) and 10 ng/ml EGF, or 30 ng/ml HGF (purchased from R&D Co.) and 10 ng/ml EGF], and the cell suspension was added at 0.4 ml to each well (with the cell counts differing slightly according to the HUVEC lot), and cultured overnight in a 5% CO2 incubator (37° C.). On the following day, the medium on the upper layer was aspirated off, and then 0.4 ml of an ice-cooled mixture of collagen: 5× RPMI 1640: reconstitution buffer (all purchased from Nitta Gelatin, Inc.) at 7:2:1 was superposed into each well prior to stationing for 4 hours in a 5% CO2 incubator (37° C.) for gelling. After adding 1.5 ml of an SFM solution containing each of the aforementioned angiogenic factors and a diluted test substance onto the upper layer, culturing was performed in a 5% CO2 incubator (37° C.). Upon aspirating off the culture supernatant in each well on the 4th day after addition of the test substance, 0.4 ml of a 3.3 mg/ml MTT solution dissolved in PBS (purchased from Sigma Corp.) was added to each well and culturing was performed for approximately 2 hours in a 5% CO2 incubator (37° C.). The tubes formed in the collagen gel of each well were stained by the MTT, the tube images were loaded into a computer (Macintosh), and the total length of the tubes was determined by image analysis software “MacScope” (purchased from Mitani Corp.). The ratio of the total length of the tubes formed in the well containing the test substance with respect to the total length of the tubes formed in the well containing no test substance was expressed as a percentage, and the concentration of each test substance required for 50% inhibition of tube formation (IC50) was determined from the ratio value.

Structures are written as SMILES. pIC50: −log10 of the molar value.

In the case of `CCN1CCN(CCCOc2cc3nccc(Oc4ccc(NC(=O)Nc5ccc(OC)cc5)cc4)c3cc2C#N)CC1` [Example 53, N-(4-(6-Cyano-7-(3-(1-(4-ethyl)piperazino)propoxy)-4-quinolyl)oxyphenyl)-N′-(4-methoxyphenyl)urea], in test [1], the “number of tubes formed in the fibrin gel (score) at 0.01 μM” value (from here on “number of tubes formed … at 0.01 μM”) was “+++”, the “number of tubes formed in the fibrin gel (score) at 0.1 μM” value (from here on “number of tubes formed … at 0.1 μM”) is recorded as “+/−” and the “number of tubes formed in the fibrin gel (score) at 1.0 μM” value (“number of tubes formed … at 1.0 μM” for short) is on record as “−”. In addition, the pIC50 in test [2] was 8.00.

Regarding `COc1ccc(NC(=O)Nc2ccc(Oc3ccnc4cc(OCCOCCO)c(C#N)cc34)cc2)cc1` [Example 72, N-(4-(6-Cyano-7-(2-(2-hydroxyethoxy)ethoxy)-4-quinolyl)oxyphenyl)-N′-(4-methoxyphenyl)urea], in test [1], the “number of tubes formed … at 0.01 μM” value is “+++”, the “number of tubes formed … at 0.1 μM” value was “−” and the “number of tubes formed … at 1.0 μM” value is reported as “−”. In addition, in test [2], the pIC50 was 7.66.

In the case of `CS(=O)(=O)c1cccc(NC(=O)Nc2ccc(Oc3ccnc4cc(OCCCN5CCOCC5)c(C#N)cc34)cc2)c1` [Example 74, N-(4-(6-Cyano-7-(3-(4-morpholino)propoxy)-4-quinolyl)oxyphenyl)-N′-(3-(methylsulfonyl)phenyl)urea], in test [1], the “number of tubes formed … at 0.01 μM” value is on record as “++”, the “number of tubes formed … at 0.1 μM” value is “−” and the “number of tubes formed … at 1.0 μM” value is “−”. The pIC50 in test [2] is 8.23.

`CCN(CC)CCCOc1cc2nccc(Oc3ccc(NC(=O)Nc4ccccc4)cc3)c2cc1C#N` [Example 75, N-(4-(6-Cyano-7-(3-(diethylamino)propoxy)-4-quinolyloxy)phenyl)-N′-phenylurea]: in test [1], the “number of tubes formed … at 0.01 μM” value was “+++”, the “number of tubes formed … at 0.1 μM” value was “+/−” and the “number of tubes formed … at 1.0 μM” value is listed as “−”. In addition, the pIC50 in test [2] is 8.85.

With `N#Cc1cc2c(Oc3ccc(NC(=O)Nc4ccc(F)cc4F)c(F)c3)ccnc2cc1OCc1ccccc1` [Example 81, N-(4-(6-Cyano-7-benzyloxy-4-quinolyl)oxy-2-fluorophenyl)-N′-(2,4-difluorophenyl)urea], in test [1], the “number of tubes formed … at 0.01 μM” value is reported as “++”, the “number of tubes formed … at 0.1 μM” value is “−” and the “number of tubes formed … at 1.0 μM” value is “−”. Besides, the pIC50 in test [2] is 8.74.

Consider `CCN(CC)CCOc1ccc(-c2cc3c(Oc4ccc(NC(=O)NC5CC5)c(Cl)c4)ncnc3[nH]2)cc1` [Example 153, 1-(2-Chloro-4-{6-[4-(2-diethylaminoethoxy)-phenyl]-7H-pyrrolo[2,3-d]pyrimidin-4-yloxy}phenyl)-3-cyclopropylurea], for which, in test [1], the “number of tubes formed … at 0.01 μM” value is listed as “+/−”, the “number of tubes formed … at 0.1 μM” value is “−” and the “number of tubes formed … at 1.0 μM” value is listed as “−”. For the same molecule, in test [2], the pIC50 was 10.70.

As for `O=C(Nc1ccc(Oc2ncnc3[nH]c(-c4ccccc4)cc23)cc1)Nc1cccc(F)c1` [Example 172, 1-(3-Fluorophenyl)-3-[4-(6-phenyl-7H-pyrrolo[2,3-d]pyrimidin-4-yloxy)phenyl]urea], in test [1], the “number of tubes formed … at 0.01 μM” value is “+”, the “number of tubes formed … at 0.1 μM” value was “+/−” and the “number of tubes formed … at 1.0 μM” value is on record as “+/−”.

Consider `O=C(CCCN1CCC(O)CC1)Nc1cc(Oc2ccc3c(ccn3C(=O)Nc3ccccc3)c2)ccn1` [Example 189, N1-Phenyl-5-[(2-{[4-(4-hydroxypiperidino)butanoyl]amino}-4-pyridyl)oxy]-1H-1-indolecarboxamide], for which, in test [1], the “number of tubes formed … at 0.01 μM” value is listed as “+/−”, the “number of tubes formed … at 0.1 μM” value is “−” and the “number of tubes formed … at 1.0 μM” value is given as “−”. In addition, the pIC50 in test [2] was 9.52.

Turning to `O=C(Nc1cc(Oc2ccc3c(ccn3C(=O)NC3CC3)c2)ccn1)C1CC1` [Example 212, N1-Cyclopropyl-5-({2-[(cyclopropylcarbonyl)amino]-4-pyridyl}oxy)-1H-1-indolecarboxamide], in test [1], the “number of tubes formed … at 0.01 μM” value was “+/−”, the “number of tubes formed … at 0.1 μM” value is recorded as “−” and the “number of tubes formed … at 1.0 μM” value is recorded as “−”.

`COc1cc2nccc(Sc3ccc(NC(=O)Nc4ccc(F)cc4)s3)c2cc1C(N)=O` [Example 245, 4-(5-(3-(4-Fluorophenyl)ureido)thiophen-2-ylsulfanyl)-7-methoxyquinoline-6-carboxamide]: in test [1], the “number of tubes formed … at 0.01 μM” value is listed as “+/−”, the “number of tubes formed … at 0.1 μM” value was “−” and the “number of tubes formed … at 1.0 μM” value is recorded as “−”.

As for `CCN(CC)CCCOc1cc2nccc(Oc3ccc4c(ccn4C(=O)NC4CC4)c3)c2cc1C#N` [Example 298, 5-[6-Cyano-7-(3-diethylaminopropoxy)quinolin-4-yloxy]indole-1-carboxylic acid cyclopropylamide], in test [1], the “number of tubes formed … at 0.01 μM” value is reported as “+/−”, the “number of tubes formed … at 0.1 μM” value is “−” and the “number of tubes formed … at 1.0 μM” value was “−”. Moreover, the pIC50 in test [2] is 9.15.

Consider `COc1cc2nccc(Oc3ccc(NC(=O)NC4CC4)c(Cl)c3)c2cc1C(N)=O` [Example 368, 4-(3-Chloro-4-(cyclopropylaminocarbonyl)aminophenoxy)-7-methoxy-6-quinolinecarboxamide], for which, in test [1], the “number of tubes formed … at 0.01 μM” value is “−”, the “number of tubes formed … at 0.1 μM” value is reported as “−” and the “number of tubes formed … at 1.0 μM” value is “−”. Besides, the pIC50 in test [2] is 8.27.

Regarding `COc1cc2nccc(Oc3ccc(NC(=O)NC4CC4)c(Cl)c3)c2cc1C(=O)NCCF` [Example 415, N6-(2-Fluoroethyl)-4-(3-chloro-4-(((cyclopropylamino)carbonyl)amino)phenoxy)-7-methoxy-6-quinolinecarboxamide], in test [1], the “number of tubes formed … at 0.01 μM” value is “+/−”, the “number of tubes formed … at 0.1 μM” value is on record as “−” and the “number of tubes formed … at 1.0 μM” value is reported as “−”. The pIC50 in test [2] was 8.42.
